Results taken from patent US20230060425A1, “FUSED BICYCLIC HETEROCYCLE DERIVATIVES AS PESTICIDES” (Bayer Aktiengesellschaft, priority 2019, published 2023).

What was measured:
Assay type in all cases: in vivo
[1] = test system: Diabrotica balteata; experiment: Diabrotica balteata spray test; conditions: 168 h, application rate 160 μg/cavity (μg/well), wheat grains, after 7 days, read-out: efficacy
Protocol: Diabrotica balteata—Spray Test
(§1) Solvent: • 78 parts by weight of acetone • 1.5 parts by weight of dimethylformamide
(§2) Emulsifier: alkylaryl polyglycol ether
(§3) To produce a suitable active compound preparation, 1 part by weight of active compound is dissolved using the stated parts by weight of solvent and made up with water containing an emulsifier concentration of 1000 ppm until the desired concentration is attained. To produce further test concentrations, the formulation is diluted with emulsifier-containing water.
Pre-swollen wheat grains (Triticum aestivum) are incubated in a multiwell plate filled with agar and a little water for one day (5 seed grains per well). The germinated wheat grains are sprayed with an active compound preparation of the desired concentration. Subsequently, each cavity is infected with 10-20 beetle larvae of Diabrotica balteata.
After 7 days, the efficacy in % is determined. 100% means that all wheat plants have grown as in the untreated, uninfected control; 0% means that no wheat plant has grown.

[2] = test system: Myzus persicae; experiment: Myzus persicae oral test; conditions: 120 h, application rate 4 ppm, after 5 days, read-out: efficacy
Protocol: Solvent: 100 parts by weight of acetone
To produce a suitable preparation of active compound, 1 part by weight of active compound is dissolved using the specified parts by weight of solvent and made up with water until the desired concentration is attained.
50 μl of the active compound preparation are transferred into microtitre plates and made up to a final volume of 200 μl with 150 μl of IPL41 insect medium (33%+15% sugar). Subsequently, the plates are sealed with parafilm, which a mixed population of green peach aphids (Myzus persicae) within a second microtitre plate is able to puncture and imbibe the solution through it.
(§4) After 5 days, the efficacy in % is determined. 100% means that all the aphids have been killed; 0% means that no aphids have been killed.

[3] = test system: Spodoptera frugiperda; experiment: Spodoptera frugiperda spray test; conditions: foliar, 168 h, application rate 100 g/ha, maize leaf discs, after 7 days, read-out: efficacy
Protocol: Spodoptera frugiperda—Spray Test
Solvent: • 78.0 parts by weight of acetone • 1.5 parts by weight of dimethylformamide
as §2
To produce further test concentrations, the formulation is diluted with emulsifier-containing water.
After 7 days, the efficacy in % is determined. 100% means that all the caterpillars have been killed; 0% means that no caterpillar has been killed.

[4] = test system: Myzus persicae; experiment: Myzus persicae spray test; conditions: foliar, 120 h, application rate 100 g/ha, Chinese cabbage leaf discs, after 5 days, read-out: efficacy
Protocol: Myzus persicae—Spray Test
as §1, §2, §3
Discs of Chinese cabbage leaves (Brassica pekinensis) infested by all stages of the green peach aphid (Myzus persicae) are sprayed with an active compound formulation of the desired concentration.
as §4

| SMILES | pest or weed control at 160 µg/well [1] [%] | pest or weed control at 4 ppm [2] [%] | pest or weed control at 100 g/ha [3] [%] | pest or weed control at 100 g/ha [4] [%] |
| --- | --- | --- | --- | --- |
| CCS(=O)(=O)c1c(-c2nc3cc(C(F)(F)C(F)(F)F)nnc3n2C)ncc2cc(C#N)ccc12 [Example I-051] | 100 | 100 | 100 |  |
| CCS(=O)(=O)c1c(-c2nc3cc(C(F)(F)C(F)(F)F)ncc3n2C)ncc2c(Br)cccc12 [Example I-019] | 100 | 100 | 100 |  |
| CCS(=O)(=O)c1c(-c2nc3cc(C(F)(F)C(F)(F)F)nnc3n2C)ncc2c(Br)cccc12 [Example I-046] | 100 | 100 | 100 |  |
| CCS(=O)(=O)c1c(-c2nc3cc(C(F)(F)C(F)(F)F)cnc3n2C)ncc2c(C#N)cccc12 [Example I-030] | 100 | 100 | 100 |  |
| CCS(=O)(=O)c1c(-c2nc3cc(C(F)(F)F)nnc3n2C)ncc2ccc(C(F)(F)F)cc12 [Example I-045] | 100 | 100 | 100 | 100 |
| CCS(=O)(=O)c1c(-c2nc3cc(C(F)(F)C(F)(F)F)cnc3n2C)ncc2cc(OCC(F)F)ccc12 [Example I-049] | 80 |  | 100 |  |
| CCS(=O)(=O)c1c(-c2nc3cc(C(F)(F)F)nnc3n2C)ncc2ccc(C)cc12 [Example I-044] | 100 | 100 |  | 90 |
| CCS(=O)(=O)c1c(-c2nc3cc(C(F)(F)F)nnc3n2C)ncc2cc(Br)ccc12 [Example I-028] | 80 | 100 | 100 | 90 |
| CCS(=O)(=O)c1c(-c2nc3cc(S(=O)(=O)C(F)(F)F)cnc3n2C)ncc2cc(Br)ccc12 [Example I-016] | 100 | 100 | 100 |  |
| CCS(=O)(=O)c1c(-c2nc3cc(C(F)(F)C(F)(F)F)cnc3n2C)ncc2cc(OCC(F)(F)F)ccc12 [Example I-048] | 100 |  | 100 |  |
| CCS(=O)(=O)c1c(-c2nc3cc(C(F)(F)C(F)(F)F)cnc3n2C)ncc2cc(OCC(C)(F)F)ccc12 [Example I-053] | 100 |  | 100 |  |
| CCS(=O)(=O)c1c(-c2nc3cc(C(F)(F)C(F)(F)F)cnc3n2C)ncc2cc(C3CC3)ccc12 [Example I-050] | 100 | 90 | 100 |  |
| CCS(=O)(=O)c1c(-c2nc3cc(C(F)(F)C(F)(F)F)nnc3n2C)ncc2cc(Br)ccc12 [Example I-043] | 100 | 100 | 100 | 90 |
| CCS(=O)(=O)c1c(-c2nc3cc(C(F)(F)F)ncc3n2C)ncc2c(Br)cccc12 [Example I-018] | 100 | 100 |  | 100 |
| CCS(=O)(=O)c1c(-c2nc3cc(C(F)(F)C(F)(F)F)cnc3n2C)ncc2c(Cl)cccc12 [Example I-031] | 100 | 100 | 100 |  |
| CCS(=O)(=O)c1c(-c2nc3cc(C(F)(F)C(F)(F)F)nnc3n2C)ncc2c(Cl)cccc12 [Example I-052] | 100 | 100 | 100 |  |
| CCS(=O)(=O)c1c(-c2nc3cc(C(F)(F)F)cnc3n2C)ncc2cc(OC)ccc12 [Example I-033] |  | 100 | 100 |  |
| CCS(=O)(=O)c1c(-c2nc3cc(C(F)(F)F)nnc3n2C)ncc2ccc(Cl)cc12 [Example I-039] | 100 | 100 | 100 |  |
